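Results reflect a 48-hour exposure of cells in 96-well plates to compound at five concentrations. The concentration for full growth arrest is given as TGI.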
Key:
Assay in all cases: NCI-60 cell line screen, 48 h
[1] = test system: SF-539 CNS
[2] = test system: OVCAR-3 ovarian
[3] = test system: SF-268 CNS
[4] = test system: OVCAR-5 ovarian
[5] = test system: MALME-3M melanoma
[6] = test system: OVCAR-8 ovarian
[7] = test system: KM12 colon
[8] = test system: RXF-631 renal
[9] = test system: MOLT-4 leukemia
[10] = test system: SNB-75 CNS
[11] = test system: DMS 114 small cell lung
[12] = test system: HOP-62 NSCLC
[13] = test system: SR leukemia
[14] = test system: UACC-62 melanoma
[15] = test system: CAKI-1 renal
[16] = test system: KM20L2 colon
[17] = test system: COLO 205 colon
[18] = test system: SK-MEL-28 melanoma
[19] = test system: HCC-2998 colon
[20] = test system: ACHN renal
[21] = test system: NCI-H522 lung
[22] = test system: LXFL 529 NSCLC
[23] = test system: EKVX NSCLC
[24] = test system: M19-MEL melanoma
[25] = test system: HCT-116 colon
[26] = test system: SK-MEL-5 melanoma
[27] = test system: A549 NSCLC
[28] = test system: HL-60(TB) leukemia
[29] = test system: SF-295 CNS
[30] = test system: HCT-15 colon
[31] = test system: CCRF-CEM leukemia
[32] = test system: HT29 colon
[33] = test system: HOP-18 NSCLC
[34] = test system: SNB-78 CNS
[35] = test system: SK-OV-3 ovarian
[36] = test system: SNB-19 CNS
[37] = test system: K-562 leukemia
[38] = test system: 786-0 renal
[39] = test system: NCI-H226 lung
[40] = test system: U251 CNS
[41] = test system: OVCAR-4 ovarian
[42] = test system: NCI-H460 lung
[43] = test system: M14 melanoma
[44] = test system: DLD-1 colon
[45] = test system: NCI-H23 lung
[46] = test system: DMS 273 small cell lung
[47] = test system: UO-31 renal
[48] = test system: SW-620 colon
[49] = test system: TK-10 renal
[50] = test system: UACC-257 melanoma
[51] = test system: SN12C renal
[52] = test system: HOP-92 NSCLC
[53] = test system: IGROV1 ovarian
[54] = test system: RXF 393 renal
[55] = test system: SK-MEL-2 melanoma
[56] = test system: RPMI-8226 leukemia
[57] = test system: XF 498 CNS
[58] = test system: LOX IMVI melanoma
[59] = test system: A498 renal

## COc1cc(C(=O)C(CO)Oc2ccccc2OC)ccc1O (centres undefined)
[1]
  TGI: > 100 µM
[2]
  TGI: > 100 µM
[3]
  TGI: > 100 µM
[4]
  TGI: > 100 µM
[5]
  TGI: > 100 µM
[6]
  TGI: > 100 µM
[7]
  TGI: > 100 µM
[8]
  TGI: > 100 µM
[9]
  TGI: > 100 µM
[10]
  TGI: > 100 µM
[11]
  TGI: > 100 µM
[12]
  TGI: > 100 µM
[13]
  TGI: > 100 µM
[14]
  TGI: > 100 µM
[15]
  TGI: > 100 µM
[16]
  TGI: > 100 µM
[17]
  TGI: > 100 µM
[18]
  TGI: > 100 µM
[19]
  TGI: > 100 µM
[20]
  TGI: > 100 µM
[21]
  TGI: > 100 µM
[22]
  TGI: > 100 µM
[23]
  TGI: > 100 µM
[24]
  TGI: > 100 µM
[25]
  TGI: > 100 µM
[26]
  TGI: > 100 µM
[27]
  TGI: > 100 µM
[28]
  TGI: > 100 µM
[29]
  TGI: > 100 µM
[30]
  TGI: > 100 µM
[31]
  TGI: > 100 µM
[32]
  TGI: > 100 µM
[33]
  TGI: > 100 µM
[34]
  TGI: > 100 µM
[35]
  TGI: > 100 µM
[36]
  TGI: > 100 µM
[37]
  TGI: > 100 µM
[38]
  TGI: > 100 µM
[39]
  TGI: > 100 µM
[40]
  TGI: > 100 µM
[41]
  TGI: > 100 µM
[42]
  TGI: > 100 µM
[43]
  TGI: > 100 µM
[44]
  TGI: > 100 µM
[45]
  TGI: > 100 µM
[46]
  TGI: > 100 µM
[47]
  TGI: > 100 µM
[48]
  TGI: > 100 µM
[49]
  TGI: > 100 µM
[50]
  TGI: > 100 µM
[51]
  TGI: > 100 µM
[52]
  TGI: > 100 µM
[53]
  TGI: > 100 µM

## CC12OC3(O)C4C5CC(C6C5C3C61)C42 (centres undefined)
[1]
  TGI: > 100 µM
[3]
  TGI: > 100 µM
[5]
  TGI: > 100 µM
[6]
  TGI: > 100 µM
[7]
  TGI: > 100 µM
[8]
  TGI: > 100 µM
[9]
  TGI: > 100 µM
[10]
  TGI: > 100 µM
[11]
  TGI: > 100 µM
[12]
  TGI: > 100 µM
[13]
  TGI: > 100 µM
[14]
  TGI: > 100 µM
[15]
  TGI: > 100 µM
[16]
  TGI: > 100 µM
[17]
  TGI: > 100 µM
[18]
  TGI: > 100 µM
[54]
  TGI: > 100 µM
[19]
  TGI: > 100 µM
[20]
  TGI: > 100 µM
[21]
  TGI: > 100 µM
[22]
  TGI: 53.1 µM
[24]
  TGI: > 100 µM
[25]
  TGI: > 100 µM
[27]
  TGI: > 100 µM
[28]
  TGI: > 100 µM
[55]
  TGI: > 100 µM
[30]
  TGI: > 100 µM
[31]
  TGI: > 100 µM
[33]
  TGI: > 100 µM
[34]
  TGI: > 100 µM
[35]
  TGI: > 100 µM
[36]
  TGI: > 100 µM
[37]
  TGI: > 100 µM
[38]
  TGI: > 100 µM
[39]
  TGI: > 100 µM
[40]
  TGI: > 100 µM
[41]
  TGI: > 100 µM
[43]
  TGI: > 100 µM
[44]
  TGI: > 100 µM
[46]
  TGI: > 100 µM
[47]
  TGI: > 100 µM
[48]
  TGI: > 100 µM
[49]
  TGI: > 100 µM
[50]
  TGI: > 100 µM
[51]
  TGI: > 100 µM
[56]
  TGI: > 100 µM

## COC(=O)C(Cc1c[nH]c2ccccc12)NC(=O)C(Cc1c[nH]c2ccccc12)NC(=O)OCc1ccccc1 (centres undefined)
[1]
  TGI: 30.4 µM
[2]
  TGI: 29 µM
[3]
  TGI: 34.6 µM
[4]
  TGI: 31.5 µM
[5]
  TGI: > 100 µM
[6]
  TGI: 31.7 µM
[7]
  TGI: 33.5 µM
[8]
  TGI: 51.1 µM
[10]
  TGI: 39.9 µM
[11]
  TGI: 33.5 µM
[12]
  TGI: 37.6 µM
[57]
  TGI: 30.7 µM
[14]
  TGI: 33.4 µM
[15]
  TGI: 40 µM
[16]
  TGI: 32.2 µM
[17]
  TGI: 30.6 µM
[18]
  TGI: 31.8 µM
[54]
  TGI: 35.1 µM
[58]
  TGI: 32.2 µM
[19]
  TGI: 31.6 µM
[20]
  TGI: 39.2 µM
[21]
  TGI: 32.2 µM
[22]
  TGI: 31.2 µM
[23]
  TGI: 33.5 µM
[24]
  TGI: 32.4 µM
[25]
  TGI: 32.4 µM
[26]
  TGI: 82.2 µM
[27]
  TGI: 33 µM
[28]
  TGI: 48.7 µM
[29]
  TGI: 31.9 µM
[30]
  TGI: 31.3 µM
[31]
  TGI: 61.3 µM
[32]
  TGI: 34.7 µM
[34]
  TGI: 60.2 µM
[35]
  TGI: 34.3 µM
[36]
  TGI: 31.6 µM
[37]
  TGI: 56.6 µM
[38]
  TGI: 29.7 µM
[39]
  TGI: 40.3 µM
[40]
  TGI: 30.6 µM
[41]
  TGI: 30.1 µM
[42]
  TGI: 32 µM
[43]
  TGI: 38 µM
[44]
  TGI: 32.7 µM
[45]
  TGI: 32.2 µM
[46]
  TGI: 29.8 µM
[59]
  TGI: > 100 µM
[47]
  TGI: 44 µM
[48]
  TGI: 31.3 µM
[49]
  TGI: 41.4 µM
[50]
  TGI: > 100 µM
[51]
  TGI: 30.9 µM
[56]
  TGI: 34.6 µM
[52]
  TGI: 48.6 µM
[53]
  TGI: 36.6 µM
